Molecular target: T1, human Src kinase (Homo sapiens, UniProt P12931)
T1 construct: full length recombinant human Src kinase (from Upstate Biotechnology, cat. no. 14-117); purchased Upstate Biotechnology 14-117; host or cells: baculovirus-infected cells ('baculo viral cells')
Assay: Src inhibition assay (radioactivity-based assay A or spectrophotometric assay B)
Assay type: biochemical
Source text: The compounds of this invention can be evaluated as inhibitors of human Src kinase using either a radioactivity-based assay or spectrophotometric assay.
The compounds can be assayed as inhibitors of full length recombinant human Src kinase (from Upstate Biotechnology, cat. no. 14-117) expressed and purified from baculo viral cells. Src kinase activity is monitored by following the incorporation of ^33P from ATP into the tyrosine of a random poly Glu-Tyr polymer substrate of composition, Glu:Tyr=4:1 (Sigma, cat. no. P-0275). The following are the final concentrations of the assay components: 0.05 M HEPES, pH 7.6, 10 mM MgCl2, 2 mM DTT, 0.25 mg/ml BSA, 10 μM ATP (1-2 μCi ^33P-ATP per reaction), 5 mg/ml poly Glu-Tyr, and 1-2 units of recombinant human Src kinase. In a typical assay, all the reaction components with the exception of ATP are pre-mixed and aliquoted into assay plate wells. […] The plates are sealed and the amount of radioactivity associated with the filters is quantified on a TopCount scintillation counter. The radioactivity incorporated is plotted as a function of the inhibitor concentration. […]
In a typical assay, all the reaction components with the exception of ATP are pre-mixed and aliquoted into assay plate wells. […] The absorbance change at 340 nm with time, the rate of the reaction, is monitored on a molecular devices plate reader. […]

T1 sequence (P12931 whole entry): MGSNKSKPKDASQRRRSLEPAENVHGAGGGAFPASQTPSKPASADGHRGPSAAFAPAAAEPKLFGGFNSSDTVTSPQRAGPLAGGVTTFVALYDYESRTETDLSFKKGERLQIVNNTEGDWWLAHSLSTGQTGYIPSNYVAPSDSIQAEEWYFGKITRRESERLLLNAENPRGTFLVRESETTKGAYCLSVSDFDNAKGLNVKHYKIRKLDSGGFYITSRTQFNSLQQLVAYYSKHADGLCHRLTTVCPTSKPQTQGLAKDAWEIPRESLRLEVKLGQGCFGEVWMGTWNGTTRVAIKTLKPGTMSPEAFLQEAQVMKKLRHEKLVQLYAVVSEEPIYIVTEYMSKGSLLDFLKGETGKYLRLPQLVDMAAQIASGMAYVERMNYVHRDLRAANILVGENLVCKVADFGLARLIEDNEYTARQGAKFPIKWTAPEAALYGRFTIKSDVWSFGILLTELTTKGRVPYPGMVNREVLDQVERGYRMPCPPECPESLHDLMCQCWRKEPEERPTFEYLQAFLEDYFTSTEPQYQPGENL

**Q.** For `Cc1nc(-c2cccs2)sc1-c1ccnc(Nc2ccc(S(N)(=O)=O)cc2)n1` [IIc-22], which Ki is on record?
**A.** The Ki was < 100 nM.

— patent US7361665B2, “Inhibitors of c-Jun N-terminal kinases (JNK) and other protein kinases” (Vertex Pharmaceuticals Incorporated, priority 2002, dated 2008)
